Reference: patent US11253594B2, “Drug combinations for protecting against neuronal cell death” (UNIVERSITY OF PITTSBURGH-OF THE COMMONWEALTH SYSTEM OF …, priority 2017, dated 2022)

Tested on: STHdh^Q111 cells
Assay: 384-well PI (propidium iodide) assay, protection from mHTT induced cell death
Format: cell-based, mouse
Details: FIG. 10
Procedure: The well-established STHdh^Q111 cell model for HD was employed to identify compounds that can protect neuronal cells from mHTT-dependent cell death. […] The propidium iodide (PI) readout enables an unbiased assessment of cell death by measuring an irreversible step that is common to all cytotoxic mechanisms.
The stress conditions for testing compounds involved incubation of the cells in serum-free medium at 37° C. and 5% CO2.
Prior to compound treatment, medium was removed and the cells washed once with PBS (pH=7.4) after which 45 μl of complete medium was added. Compounds in 5 μl complete medium were added to cells. […] Compounds in serum free medium (5 μl) were added and cells were incubated at 37° C. and 5% CO2.
Image analysis was carried out using the Multiwavelength Cell Scoring application in the MetaXpress software. The nuclear compartment was identified in Ch1 with a threshold intensity of 2,000 above background and the Texas Red compartment was identified in Ch2 with a threshold intensity of 20,000 above background.
For the analyses presented here the Percent Recovery was calculated from the Percent PI positive cells by:
[formula] where positive controls are the STHdh^Q7 cells, and negative controls are the STHdh^Q111 cells treated with DMSO
The LOPAC library was screened in the 384-well PI assay at 30, 10, and 3 μM.

CCOc1ccc2nc(S(C)(=O)=O)sc2c1 [methyl sulfonyl analog of ETX, 6-ethoxy-2-(methylsulfonyl) benzo[d]thiazole]
efficacy relative to ethoxzolamide: equally efficacious | STHdh^Q111 cells protected (maximal protection): ~50% | potency in protecting STHdh^Q111 cells relative to ETX (propidium iodide assay): 7 fold
